# Test system: Acetylcholine-Bromide Induced Abdominal Constriction
# Experiment: Mouse Acetylcholine Bromide-Induced Abdominal Constriction Assay
# Assay type: in vivo
# Conditions: @10 mpk/ko (so in the source)
# Text: Mouse Acetylcholine Bromide-Induced Abdominal Constriction Assay
# The mouse acetylcholine-induced abdominal constiction assay, as described by Collier et al. in Brit. J. Pharmacol. Chem. Ther., 32:295-310, 1968, with minor modifications was used to assess analgesic potency of the compounds of formula (I). […] The mice were then placed in groups of three into glass bell jars and observed for a ten minute observation period for the occurrence of an abdominal constriction response (defined as a wave of constriction and elongation passing caudally along the abdominal wall, accompanied by a twisting of the trunk and followed by extension of the hind limbs). The percent inhibition of this response to a nociceptive stimulus (equated to % analgesia) was calculated as follows: The % Inhibition of response, i.e., % analgesia is equal to the difference between the No. of control animals response and the No. of drug-treated animals response times 100 divided by the No. of control animals responding.
# At least 15 animals were used for control and in each of the drug treated groups. At least three doses were used to determine each dose response curve and ED50 (that dose which would produce 50% analgesia). The ED50 values and their 95% fiducial limits were determined by a computer assisted probit analysis.
row,SMILES,% Inhibition
1,"CN1C[C@@H]2CCC[C@@](O)(c3ccccc3)[C@@H]2C1 (single isomer, unassigned) [Cp-12, (-)-4β-Hydroxy-2-Methyl-4-Phenyl-3aα,7aα-Octahydroisoindole]",90%

# Same assay, conditions: @10 mpk/po
row,SMILES,% Inhibition
1,"CN1C[C@@H]2CCC[C@@](O)(c3ccccc3)[C@@H]2C1 (single isomer, unassigned) [Cp-15, (+)-4β-Hydroxy-2-Methyl-4-phenyl-3aα,7aα-octahydroisoindole]",90%

# Same assay, conditions: @30 mpk/po
row,SMILES,% Inhibition
1,COc1ccc([C@]2(O)CCC[C@H]3CN(C)C[C@H]32)cc1 (relative stereo) [Cp-3],46-93%
2,O[C@@]1(c2cccc(C(F)(F)F)c2)CCC[C@H]2CN(Cc3ccccc3)C[C@H]21 (relative stereo) [Cp-18],71%

# Same assay, conditions: @30 mpk/sc
row,SMILES,% Inhibition
1,COc1cccc([C@]2(O)CCC[C@H]3CN(Cc4ccccc4)C[C@H]32)c1 (relative stereo) [Cp-13],75%

# Same assay, conditions: Mus musculus, 0.5 h; po; 5.5 mg/kg i.p. acetylcholine bromide 30 minutes after drug; read-out: ED50 (dose which would produce 50% analgesia)
row,SMILES,ED50
1,CN1C[C@@H]2CCC[C@@](O)(c3cccs3)[C@@H]2C1 (relative stereo) [Cp-1],7.3 mg/kg
2,CN1C[C@@H]2CCC[C@@](O)(c3ccc(F)cc3)[C@@H]2C1 (relative stereo) [Cp-4],0.76 mg/kg
3,CN1C[C@@H]2CCC[C@@](O)(c3cccc4ccccc34)[C@@H]2C1 (relative stereo) [Cp-5],16.6 mg/kg
4,CN1C[C@@H]2CCC[C@@](O)(c3cccnc3)[C@@H]2C1 (relative stereo) [Cp-6],30.4 mg/kg
5,CN1C[C@@H]2CCC[C@@](O)(c3cccc(F)c3)[C@@H]2C1 (relative stereo) [Cp-7],5.38 mg/kg
6,CN1C[C@@H]2CCC[C@@](O)(c3cccc(C(F)(F)F)c3)[C@@H]2C1 (relative stereo) [Cp-8],2.08 mg/kg
7,CN1C[C@@H]2CCC[C@@](O)(c3ccccn3)[C@@H]2C1 (relative stereo) [Cp-9],15.4 mg/kg
8,CN1C[C@@H]2CCC[C@@](O)(c3ccc(Cl)cc3Cl)[C@@H]2C1 (relative stereo) [Cp-11],1.36 mg/kg
9,CN1C[C@@H]2CCC[C@@](O)(c3ccccc3)[C@@H]2C1 (relative stereo) [Cp-16],3.9 mg/kg
10,O[C@@]1(c2cccc(C(F)(F)F)c2)CCC[C@H]2CNC[C@H]21 (relative stereo) [Cp-19],4.2 mg/kg
11,O[C@@]1(c2ccc(C(F)(F)F)cc2)CCC[C@H]2CN(Cc3ccccc3)C[C@H]21 (relative stereo) [Cp-20],10.7 mg/kg
